Experimental data taken from PubChem BioAssay AID2060626 (Molecular Pharmacology Branch, DTP, NCI, 2025).

Test system: 168753-222-R-J1-PDC complex spheroid viability
Experiment: Anticancer human tumor 168753-222-R-J1-PDC patient-derived bladder carcinoma cell line growth inhibition [CLK]
Details: for IC50: curve of first compound; for viability, T/C: stronger effect = lower value
Outline: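 Patient-derived tumor cells grown as complex spheroids with HUVEC endothelial cells and mesenchymal stem cells, treated with drug combinations. Concentrations descend in half-log steps from near clinical Cmax, or from 10 microM if Cmax unknown.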

[1] = second compound 0.0316 µM, first compound 0.0316 µM
[2] = second compound 0.0316 µM, first compound 0.1 µM
[3] = second compound 0.0316 µM, first compound 0.316 µM
[4] = second compound 0.0316 µM, first compound 1 µM
[5] = second compound 0.1 µM, first compound 0.0316 µM
[6] = second compound 0.1 µM, first compound 0.1 µM
[7] = second compound 0.1 µM, first compound 0.316 µM
[8] = second compound 0.1 µM, first compound 1 µM
[9] = second compound 0.316 µM, first compound 0.0316 µM
[10] = second compound 0.316 µM, first compound 0.1 µM
[11] = second compound 0.316 µM, first compound 0.316 µM
[12] = second compound 0.316 µM, first compound 1 µM
[13] = second compound 1 µM, first compound 0.0316 µM
[14] = second compound 1 µM, first compound 0.1 µM
[15] = second compound 1 µM, first compound 0.316 µM
[16] = second compound 1 µM, first compound 1 µM
[17] = second compound 3.16 µM, first compound 0.0316 µM
[18] = second compound 3.16 µM, first compound 0.1 µM
[19] = second compound 3.16 µM, first compound 0.316 µM
[20] = second compound 3.16 µM, first compound 1 µM
[21] = second compound 10 µM, first compound 0.0316 µM
[22] = second compound 10 µM, first compound 0.1 µM
[23] = second compound 10 µM, first compound 0.316 µM
[24] = second compound 10 µM, first compound 1 µM
[25] = second compound 0.0316 µM, first compound 0.00316 µM
[26] = second compound 0.0316 µM, first compound 0.01 µM
[27] = second compound 0.1 µM, first compound 0.00316 µM
[28] = second compound 0.1 µM, first compound 0.01 µM
[29] = second compound 0.316 µM, first compound 0.00316 µM
[30] = second compound 0.316 µM, first compound 0.01 µM
[31] = second compound 1 µM, first compound 0.00316 µM
[32] = second compound 1 µM, first compound 0.01 µM
[33] = second compound 3.16 µM, first compound 0.00316 µM
[34] = second compound 3.16 µM, first compound 0.01 µM
[35] = second compound 10 µM, first compound 0.00316 µM
[36] = second compound 10 µM, first compound 0.01 µM
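Further: viability measured after seven days of drug exposure.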
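Wherever viability, T/C is given: luminescence signal used as surrogate for viable cell amount; 100% = DMSO vehicle control wells.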

## CC(Nc1ccc2c(c1)OCCn1cc(N3C(=O)OCC3C(F)F)nc1-2)C(N)=O (stereo unspecified) + CNC(=O)c1ccc(Nc2nc(OC3CCCC3)c3c(-c4ccc5nc(C)oc5c4)c[nH]c3n2)c(OC)c1
Second compound 0.0316 µM
  IC50: 161 nM
Second compound 0.1 µM
  IC50: 133 nM
Second compound 0.316 µM
  IC50: 45.8 nM
Second compound 1 µM
  IC50: < 31.6 nM
Second compound 3.16 µM
  IC50: < 31.6 nM
Second compound 10 µM
  IC50: < 31.6 nM
[1]
  viability, T/C: 93.1%
[2]
  viability, T/C: 71%
[3]
  viability, T/C: 20.2%
[4]
  viability, T/C: 15.5%
Second compound 0.0316 µM, first compound 3.16 µM
  viability, T/C: 13.3%
Second compound 0.0316 µM, first compound 10 µM
  viability, T/C: 13%
[5]
  viability, T/C: 83.7%
[6]
  viability, T/C: 60.5%
[7]
  viability, T/C: 18.3%
[8]
  viability, T/C: 14.3%
Second compound 0.1 µM, first compound 3.16 µM
  viability, T/C: 13.5%
Second compound 0.1 µM, first compound 10 µM
  viability, T/C: 11.6%
[9]
  viability, T/C: 62.5%
[10]
  viability, T/C: 23.5%
[11]
  viability, T/C: 15%
[12]
  viability, T/C: 9.68%
Second compound 0.316 µM, first compound 3.16 µM
  viability, T/C: 9.36%
Second compound 0.316 µM, first compound 10 µM
  viability, T/C: 9.19%
[13]
  viability, T/C: 24.3%
[14]
  viability, T/C: 13.5%
[15]
  viability, T/C: 6.89%
[16]
  viability, T/C: 2.64%
Second compound 1 µM, first compound 3.16 µM
  viability, T/C: 1.07%
Second compound 1 µM, first compound 10 µM
  viability, T/C: 2.28%
[17]
  viability, T/C: 14.9%
[18]
  viability, T/C: 10.1%
[19]
  viability, T/C: 3.74%
[20]
  viability, T/C: 0.82%
Second compound 3.16 µM, first compound 3.16 µM
  viability, T/C: 1.82%
Second compound 3.16 µM, first compound 10 µM
  viability, T/C: 3.99%
[21]
  viability, T/C: 12.8%
[22]
  viability, T/C: 9.3%
[23]
  viability, T/C: 3.4%
[24]
  viability, T/C: 0.76%
Second compound 10 µM, first compound 3.16 µM
  viability, T/C: 0.78%
Second compound 10 µM, first compound 10 µM
  viability, T/C: 1.14%

## CCN1CCN(Cc2ccc(Nc3ncc(F)c(-c4cc(F)c5nc(C)n(C(C)C)c5c4)n3)nc2)CC1 + CNC(=O)c1ccc(Nc2nc(OC3CCCC3)c3c(-c4ccc5nc(C)oc5c4)c[nH]c3n2)c(OC)c1
Second compound 0.0316 µM
  IC50: > 1000 nM
Second compound 0.1 µM
  IC50: > 1000 nM
Second compound 0.316 µM
  IC50: 85.5 nM
Second compound 1 µM
  IC50: < 3.16 nM
Second compound 3.16 µM
  IC50: < 3.16 nM
Second compound 10 µM
  IC50: < 3.16 nM
[25]
  viability, T/C: 103%
[26]
  viability, T/C: 104%
[1]
  viability, T/C: 79.3%
[2]
  viability, T/C: 77%
[3]
  viability, T/C: 65.5%
[4]
  viability, T/C: 67.1%
[27]
  viability, T/C: 92.9%
[28]
  viability, T/C: 88.5%
[5]
  viability, T/C: 78.8%
[6]
  viability, T/C: 70.1%
[7]
  viability, T/C: 70.4%
[8]
  viability, T/C: 55.7%
[29]
  viability, T/C: 83.6%
[30]
  viability, T/C: 77%
[9]
  viability, T/C: 67.2%
[10]
  viability, T/C: 46.3%
[11]
  viability, T/C: 43%
[12]
  viability, T/C: 44.6%
[31]
  viability, T/C: 25.2%
[32]
  viability, T/C: 46.9%
[13]
  viability, T/C: 25.2%
[14]
  viability, T/C: 22.5%
[15]
  viability, T/C: 19.4%
[16]
  viability, T/C: 26.4%
[33]
  viability, T/C: 26.3%
[34]
  viability, T/C: 20.9%
[17]
  viability, T/C: 18.8%
[18]
  viability, T/C: 15.4%
[19]
  viability, T/C: 17%
[20]
  viability, T/C: 17.7%
[35]
  viability, T/C: 17.4%
[36]
  viability, T/C: 19.6%
[21]
  viability, T/C: 17.4%
[22]
  viability, T/C: 14.6%
[23]
  viability, T/C: 15.1%
[24]
  viability, T/C: 18.2%

## COc1c(OCCCN2CCOCC2)ccc2c3n(c(=NC(=O)c4cnc(N)nc4)nc12)CCN3 + CNC(=O)c1ccc(Nc2nc(OC3CCCC3)c3c(-c4ccc5nc(C)oc5c4)c[nH]c3n2)c(OC)c1
Second compound 0.0316 µM
  IC50: 12 nM
Second compound 0.1 µM
  IC50: 13.1 nM
Second compound 0.316 µM
  IC50: 5.16 nM
Second compound 1 µM
  IC50: < 3.16 nM
Second compound 3.16 µM
  IC50: < 3.16 nM
Second compound 10 µM
  IC50: < 3.16 nM
[25]
  viability, T/C: 96.5%
[26]
  viability, T/C: 56.4%
[1]
  viability, T/C: 17.8%
[2]
  viability, T/C: 13.7%
[3]
  viability, T/C: 8.52%
[4]
  viability, T/C: 1.96%
[27]
  viability, T/C: 87.3%
[28]
  viability, T/C: 60.8%
[5]
  viability, T/C: 14.7%
[6]
  viability, T/C: 11.1%
[7]
  viability, T/C: 7.84%
[8]
  viability, T/C: 1.03%
[29]
  viability, T/C: 67.3%
[30]
  viability, T/C: 25.6%
[9]
  viability, T/C: 12.7%
[10]
  viability, T/C: 7.32%
[11]
  viability, T/C: 4.55%
[12]
  viability, T/C: 0.36%
[31]
  viability, T/C: 25%
[32]
  viability, T/C: 16.4%
[13]
  viability, T/C: 3.59%
[14]
  viability, T/C: 0.43%
[15]
  viability, T/C: 0.26%
[16]
  viability, T/C: 1.09%
[33]
  viability, T/C: 14.6%
[34]
  viability, T/C: 12.3%
[17]
  viability, T/C: 2.46%
[18]
  viability, T/C: 0.34%
[19]
  viability, T/C: 2.13%
[20]
  viability, T/C: 1.79%
[35]
  viability, T/C: 12.6%
[36]
  viability, T/C: 10.4%
[21]
  viability, T/C: 3.75%
[22]
  viability, T/C: 2.46%
[23]
  viability, T/C: 0.34%
[24]
  viability, T/C: 3.45%
